# Results reported in patent US20260297542A1, “HERBICIDE RESISTANT PLANTS” (SYNGENTA CROP PROTECTION AG, priority 2023, published 2026).
# Molecular target: T1, His-TEV-AtPPO1 ΔcTP V002 (SEQ ID NO: 373) (Arabidopsis thaliana, UniProt P55826, L479M/S305L/Y426V)
# T1 construct: with cTPs removed; made in house; host or cells: E. coli BL21 (DE3), His GraviTrap, partially purified
# T1 sequence (P55826 with tags, fused parts or gaps S305L/Y426V/L479M): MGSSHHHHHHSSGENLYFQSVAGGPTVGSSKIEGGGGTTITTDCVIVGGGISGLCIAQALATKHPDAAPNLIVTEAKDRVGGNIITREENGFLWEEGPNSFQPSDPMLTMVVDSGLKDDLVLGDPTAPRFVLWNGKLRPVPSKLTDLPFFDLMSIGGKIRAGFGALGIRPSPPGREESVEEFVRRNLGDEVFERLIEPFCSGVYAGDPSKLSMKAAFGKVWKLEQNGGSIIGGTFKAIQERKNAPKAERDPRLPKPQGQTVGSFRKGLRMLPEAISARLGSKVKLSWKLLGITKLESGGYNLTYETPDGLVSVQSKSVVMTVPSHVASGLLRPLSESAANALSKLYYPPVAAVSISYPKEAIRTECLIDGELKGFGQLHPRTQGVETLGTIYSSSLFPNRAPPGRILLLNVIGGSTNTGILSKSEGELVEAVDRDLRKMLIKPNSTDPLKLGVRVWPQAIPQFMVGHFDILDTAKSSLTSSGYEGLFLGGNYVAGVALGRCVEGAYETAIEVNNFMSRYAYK
# Test: activity rate of PPO variant in in vitro assay
# Format: biochemical
# Conditions: role: substrate; 1 uM protoporphyrinogen IX; no inhibitor
# Excerpt: A pET24 plasmid containing a DNA sequence encoding variants of AtPPO1 derived from Arabidopsis thaliana with cTPs removed and both a 6×His tag and TEV protease cleavage tag added at the N-terminus, codon-optimised for expression in E. coli, and under control of a T7 promoter, was synthesised by Twist Bioscience. The following variants were synthesised: WT AtPPO1 (SEQ ID NO: 370), AtPPO1 L479M (SEQ ID NO: 371), AtPPO1 L479N (SEQ ID NO: 372), AtPPO1 S305L Y426V (SEQ ID NO: 374) and AtPPO1 S305L Y426V L479M (SEQ ID NO: 373). This plasmid was expressed in E. coli BL21 (DE3) with 50 μg/mL kanamycin selection. 10 mL of overnight cultures grown at 37° C. were used to inoculate 1 L AIM (AIM-Terrific Broth Base including Trace elements, Formedium) in 2 L shake flasks. Cultures were grown at 37° C., 200 rpm for 3 hours and then overnight at 26° C. Cells were harvested centrifugation. 5-15 g of cell pellet was lysed in and resuspended in ratio of 1:1.5 in lysis buffer (20 mM Tris pH8, 500 mM sodium chloride, 10% glycerol, 1× complete Protease EDTA-free Inhibitor Tablet (Roche), 10 mM imidazole). The resuspension was sonicated at 75% using 10 cycles of 30 seconds, 40 seconds off. After sonication Triton X-100 was added to the lysates at a final concentration of 0.5%. The lysates were centrifuged at 20,000 rpm for 25 min at 4° C. Cleared lysates were loaded on His GraviTrap (Cytiva) columns, washed with 20 mL of lysis buffer and eluted in elution buffer (20 mM Tris pH8, 500 mM sodium chloride, 10% glycerol, 200 mM imidazole, 0.03% (v/v) Triton X-100). The eluate was desalted on a PD10 column and 2.5-3.2 mL was collected. Protein concentration was measured and calculated using the absorbance at 280 nm. Extracts were diluted 1 in 4 and 10 uL was analysed by SDS PAGE.
# Partially purified Protoporphyrinogen Oxidase enzymes were assayed for activity using fluorescence adapted from the method of Shepherd & Dailey (Anal Biochem. 2005 344(1) 115-121). The assay was performed in black 384 well plates with a clear bottom and the total volume of the reaction mixture was 91 ul. The final assay mixture contained 100 mM K2HPO4 pH7.2, 1 mM Na2EDTA, 5 mM DTT, 20% glycerol (v/v), 0.05% Tween 20 (v/v), 1.1% DMSO (v/v), 1 uM protoporphyrinogen IX and 1.5 nM enzyme. Compounds were dissolved in DMSO at 1 mM and a 4-fold serial dilution carried out to give 8 rates. 1 ul was added to the assay mixture. This gave final compound concentrations of 11, 2.7, 0.69, 0.17, 0.04, 0.01, 0.002, 0.0007 uM. Enzyme and inhibitor were preincubated for 5 minutes prior to starting the reaction with the addition of the substrate. […] IC50s were calculated using GraphPad Prism 7.05 nonlinear regression (Table 6). Each compound was tested in duplicate.
structure (smiles),measurement,value
C=Cc1c2[nH]c(c1C)Cc1[nH]c(c(CCC(=O)O)c1C)Cc1[nH]c(c(C)c1CCC(=O)O)Cc1[nH]c(c(C)c1C=C)C2 [protoporphyrinogen IX],Rate,7.6 rfu second^−1 pmole^−1
